Structures can show the parent of a compound that is named as a salt. Where two headings read alike, the source gives them in different places. Each block holds one molecule with its values, some of them ahead of it.
Experiments:
[1] = target: T1, Cdc7/Dbf4 complex (Homo sapiens, UniProt O00311); assay: Measurement of Cdc7 kinase inhibitory activity (Transcreener ADP HTRF assay); type: biochemical
T1 construct: Full-length Cdc7 co-expressed with full-length Dbf4; purchased Carna Biosciences (Kobe)
T1 sequence (O00311 whole entry): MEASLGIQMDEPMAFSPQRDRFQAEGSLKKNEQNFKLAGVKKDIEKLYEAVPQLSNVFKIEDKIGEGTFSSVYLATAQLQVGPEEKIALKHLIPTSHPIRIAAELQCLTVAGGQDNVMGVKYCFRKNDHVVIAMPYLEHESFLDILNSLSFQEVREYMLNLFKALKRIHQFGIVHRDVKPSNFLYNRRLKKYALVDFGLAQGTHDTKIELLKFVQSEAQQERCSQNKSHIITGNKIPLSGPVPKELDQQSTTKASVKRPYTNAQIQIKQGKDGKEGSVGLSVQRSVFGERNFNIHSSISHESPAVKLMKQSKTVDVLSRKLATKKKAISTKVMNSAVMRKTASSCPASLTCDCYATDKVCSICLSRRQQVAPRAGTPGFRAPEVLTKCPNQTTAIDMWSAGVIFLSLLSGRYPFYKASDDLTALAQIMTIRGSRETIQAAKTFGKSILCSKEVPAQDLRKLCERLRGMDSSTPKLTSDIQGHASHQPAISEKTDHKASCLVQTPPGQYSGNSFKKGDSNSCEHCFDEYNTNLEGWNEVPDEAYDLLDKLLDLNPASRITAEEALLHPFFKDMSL
T1 sequence (Q9UBU7 whole entry partner): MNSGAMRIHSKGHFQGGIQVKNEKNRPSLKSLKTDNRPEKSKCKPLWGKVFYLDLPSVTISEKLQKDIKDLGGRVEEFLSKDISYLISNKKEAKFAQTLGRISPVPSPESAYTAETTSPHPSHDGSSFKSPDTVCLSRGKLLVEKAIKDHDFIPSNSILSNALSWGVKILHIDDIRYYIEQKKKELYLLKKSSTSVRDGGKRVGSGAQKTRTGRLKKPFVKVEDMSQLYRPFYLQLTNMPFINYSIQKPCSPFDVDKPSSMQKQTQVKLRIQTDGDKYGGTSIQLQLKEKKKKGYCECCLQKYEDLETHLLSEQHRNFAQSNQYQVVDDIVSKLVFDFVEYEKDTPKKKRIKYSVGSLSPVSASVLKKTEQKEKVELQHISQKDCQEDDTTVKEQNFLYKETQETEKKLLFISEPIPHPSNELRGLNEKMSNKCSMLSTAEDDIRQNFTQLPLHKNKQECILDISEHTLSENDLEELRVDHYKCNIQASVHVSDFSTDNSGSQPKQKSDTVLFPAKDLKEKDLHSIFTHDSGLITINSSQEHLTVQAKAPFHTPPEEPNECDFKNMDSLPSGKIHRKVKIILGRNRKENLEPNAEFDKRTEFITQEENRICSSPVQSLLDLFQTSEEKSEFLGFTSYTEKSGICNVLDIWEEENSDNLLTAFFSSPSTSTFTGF
Method: Full-length Cdc7 co-expressed with full-length Dbf4 was purchased from Carna Biosciences (Kobe). The enzyme activity of Cdc7/Dbf4 complex was detected by homogeneous time-resolved fluorescence method Transcreener ADP assay (Cisbio Inc., MA, U.S.A.). […] Free ADP produced by ATP hydrolysis was detected by Eu^3+-Cryptate-labeled anti-ADP monoclonal antibody competitively with d2-labeled ADP, and the production amount thereof was measured. The obtained time-resolved fluorescence resonance energy transfer signal was measured by EnVision (Perkin Elmer Inc., MA, U.S.A.). The inhibitory rate (%) of the test compound to Cdc7 was calculated by the following formula. Inhibitory rate(%)=(1−(count of test compound-blank)[…](control-blank))×100
The count of the Cdc7/Dbf4 reaction mixture under compound-free conditions was taken as the control, and that under compound-free and Cdc7/Dbf4-free conditions was taken as the blank.

[2] = tested on: human colorectal cancer cell Colo205; assay: Measurement of growth inhibitory activity on human colorectal cancer cell Colo205 (CellTiter-Glo); type: cell-based; details: COLO 205, 72 h, read-out: inhibitory rate (%) at 1 μM
Method: The growth inhibition of colorectal cancer cell Colo205 with the compound of the present invention can be measured as follows.
A cell suspension (100 μl) of human colorectal cancer cell Colo205 (purchased from ATCC) (3,000 cells/well) was plated in a 96 well plate, and cultured in a 5% carbon dioxide gas incubator at 37° C. for 1 day. Each 2 μM test compound solution was added by 100 μl and the cells were cultured for 3 days. CellTiter-Glo™ Luminescent Cell Viability Assay reagent (50 μl, Promega) was added to the 96 well plate, the luminescence level was measured by a luminometer and the residual ATP amount was taken as the cell amount. The luminescence level of a well free of cell plating was taken as a blank. The cell proliferation inhibitory rate (%) of the test compound was calculated by the following formula. Inhibitory rate(%)=(1−(luminescence level of test compound—blank)[…](luminescence level of control group—blank))×100

[3] = tested on: phosphorylated MCM2 (Ser40/Ser41); assay: Measurement of MCM2 phosphorylation inhibitory activity in human colorectal cancer cell Colo205 (Western blot); type: cell-based; details: read-out: inhibitory rate (%) at 1 μM
Method: The MCM2 phosphorylation suppressive action of the compound of the present invention in human colorectal cancer cell Colo205 can be measured as follows. A cell suspension (500 μl) of human colorectal cancer cell Colo205 (purchased from ATCC) (50,000 cells/well) was plated in a 24 well plate, and cultured in a 5% carbon dioxide gas incubator at 37° C. for 1 day. […] The plate was washed with PBS, the cells were lysed in Laemmli Sample Buffer (BioRad), and cell lysate was treated at 95° C. for 5 min.

[4] = test compound 1 μM, Cdc7/Dbf4, 1.0 μm ATP, 10 μg/ml MCM2, read-out: inhibitory rate (%) at 1 μM
[5] = cell proliferation, Colo205, 1 μM, cultured for 3 days
[6] = COLO 205, phosphorylated MCM2 protein, Colo205 cells, 1 μM, 8 hr
[7] = read-out: inhibitory rate (%) at 1 μM, test compound 1 μM, Cdc7/Dbf4, 1.0 μm ATP, 10 μg/ml MCM2
[8] = read-out: inhibitory rate (%) at 1 μM

Compound: Cc1[nH]ncc1-c1cc2nc([C@H]3NC4CC3[C@H](F)C4)[nH]c(=O)c2s1 (single isomer, unassigned) [Example 160, 2-[(1R,3S,4R,5R) or (1S,3S,4S,5R)-5-fluoro-2-azabicyclo[2.2.1]hept-3-yl]-6-(5-methyl-1H-pyrazol-4-yl)thieno[3,2-d]pyrimidin-4 (3H)-one dihydrochloride]
inhibition at 1 µM [1, 4]: 104%
inhibition at 1 µM [2, 5]: 73.3%
inhibition at 1 µM [3, 6]: 95%

Compound: Cc1[nH]ncc1-c1cc2nc([C@H]3N[C@@H]4CC[C@H]3C4)[nH]c(=O)c2s1 [Example 91, 2-[(1R,3S,4S)-2-azabicyclo[2.2.1]heptan-3-yl]-6-(5-methyl-1H-pyrazol-4-yl)thieno[3,2-d]pyrimidin-4 (3H)-one]
inhibition at 1 µM [1, 4]: 106%
inhibition at 1 µM [2, 5]: 71.7%
inhibition at 1 µM [3, 6]: 98.4%

Compound: Cc1[nH]ncc1-c1cc2nc([C@@H]3CC4CCN3CC4)[nH]c(=O)c2s1 [Example 170, 2-[(2S)-1-azabicyclo[2.2.2]oct-2-yl]-6-(5-methyl-1H-pyrazol-4-yl)thieno[3,2-d]pyrimidin-4 (3H)-one trifluoroacetate]
inhibition at 1 µM [1, 4]: 95%
inhibition at 1 µM [2]: 69.7%
inhibition at 1 µM ([3]; COLO 205, 8 h): 97.3%

Compound: Cc1[nH]ncc1-c1cc2nc(C34CCC(CC3)N4)[nH]c(=O)c2s1 [Example 116, 2-(7-azabicyclo[2.2.1]hept-1-yl)-6-(5-methyl-1H-pyrazol-4-yl)thieno[3,2-d]pyrimidin-4 (3H)-one monohydrochloride]
inhibition at 1 µM [1, 7]: 102%
inhibition at 1 µM [2]: 60.5%
inhibition at 1 µM ([3]; COLO 205, 8 h): 98.7%

Compound: Cc1[nH]ncc1-c1cc2nc([C@@H]3NC[C@@H]4C[C@@H]43)[nH]c(=O)c2s1 [Example 112, 2-[(1S,2R,5R)-3-azabicyclo[3.1.0]hex-2-yl]-6-(5-methyl-1H-pyrazol-4-yl)thieno[3,2-d]pyrimidin-4 (3H)-one dihydrochloride]
inhibition at 1 µM [1, 4]: 105%

inhibition at 1 µM [1, 4]: 101%
Compound: Cc1[nH]ncc1-c1cc2nc([C@H]3CC4CCN3CC4)[nH]c(=O)c2s1 [Example 164, 2-[(2R)-1-azabicyclo[2.2.2]oct-2-yl]-6-(5-methyl-1H-pyrazol-4-yl)thieno[3,2-d]pyrimidin-4 (3H)-one trifluoroacetate]

Compound: Cc1[nH]ncc1-c1cc2nc([C@H]3NCC[C@@H]3C)[nH]c(=O)c2s1 [Example 140, 6-(5-methyl-1H-pyrazol-4-yl)-2-[(2S,3S)-3-methylpyrrolidin-2-yl]thieno[3,2-d]pyrimidin-4 (3H)-one dihydrochloride]
inhibition at 1 µM [1, 8]: 100%

inhibition at 1 µM [1, 4]: 108%
Compound: Cc1[nH]ncc1-c1cc2nc([C@H]3CCCC[C@@H]3N)[nH]c(=O)c2s1 (relative stereo) [Example 129, 2-[(1R*,2R*)-2-aminocyclohexyl]-6-(5-methyl-1H-pyrazol-4-yl)thieno[3,2-d]pyrimidin-4 (3H)-one dihydrochloride]

Compound: Cc1[nH]ncc1-c1cc2nc([C@@H]3CCN3)[nH]c(=O)c2s1 [Example 77, 2-[(2S)-azetidin-2-yl]-6-(5-methyl-1H-pyrazol-4-yl)thieno[3,2-d]pyrimidin-4 (3H)-one]
inhibition at 1 µM [1, 8]: 108%

inhibition at 1 µM [1, 7]: 109%
Compound: Cc1[nH]ncc1-c1cc2nc(C3CCCCN3)[nH]c(=O)c2s1 (centres unmarked) [Example 71, 6-(5-methyl-1H-pyrazol-4-yl)-2-(piperidin-2-yl)thieno[3,2-d]pyrimidin-4 (3H)-one dihydrochloride]

Compound: Cc1[nH]ncc1-c1cc2nc([C@H]3NC4CCC3CC4)[nH]c(=O)c2s1 [Example 108, 2-[(3S)-2-azabicyclo[2.2.2]oct-3-yl]-6-(5-methyl-1H-pyrazol-4-yl)thieno[3,2-d]pyrimidin-4 (3H)-one dihydrochloride]
inhibition at 1 µM [1, 4]: 103%

inhibition at 1 µM [1, 4]: 107%
Compound: Cc1[nH]ncc1-c1cc2nc(CN3CC=CCC3)[nH]c(=O)c2s1 [Example 75, 2-(3,6-dihydropyridin-1(2H)-ylmethyl)-6-(5-methyl-1H-pyrazol-4-yl)thieno[3,2-d]pyrimidin-4 (3H)-one]
